Measurements taken from ChEMBL document CHEMBL3879915, “Methods of inhibiting PRMT5” (2014).

molecular target: PRMT5/MEP50 complex (Homo sapiens, UniProt O14744); test: Inhibition of recombinant human fetal brain FLAG-tagged PRMT5/full length human testis 6His-tagged MEP50 expressed in baculovirus infected insect Sf9 cells using human histone H4 (1 to 15 residues) as substrate preincubated for 30 mins followed by [3H]-SAM addition
Sequence (O14744 whole entry, the tested form may be a part): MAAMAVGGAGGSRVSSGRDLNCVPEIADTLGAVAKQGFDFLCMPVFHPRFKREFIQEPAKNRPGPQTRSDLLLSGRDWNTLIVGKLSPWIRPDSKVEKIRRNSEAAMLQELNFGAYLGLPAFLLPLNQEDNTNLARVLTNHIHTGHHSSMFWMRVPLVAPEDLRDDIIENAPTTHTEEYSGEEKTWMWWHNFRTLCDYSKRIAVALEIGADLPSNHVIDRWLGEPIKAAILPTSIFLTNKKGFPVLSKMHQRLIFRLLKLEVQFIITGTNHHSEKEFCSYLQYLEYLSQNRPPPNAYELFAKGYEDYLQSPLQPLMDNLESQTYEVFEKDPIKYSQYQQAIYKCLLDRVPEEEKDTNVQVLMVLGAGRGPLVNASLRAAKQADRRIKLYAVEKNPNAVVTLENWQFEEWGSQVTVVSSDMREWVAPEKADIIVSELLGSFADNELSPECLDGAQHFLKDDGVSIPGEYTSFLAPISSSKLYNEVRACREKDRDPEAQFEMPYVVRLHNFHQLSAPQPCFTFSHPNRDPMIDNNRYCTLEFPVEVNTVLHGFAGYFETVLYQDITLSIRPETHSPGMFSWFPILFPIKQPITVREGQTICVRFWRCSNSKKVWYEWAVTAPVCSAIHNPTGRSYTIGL
Sequence (Q9BQA1 whole entry, further chain, the tested form may be a part): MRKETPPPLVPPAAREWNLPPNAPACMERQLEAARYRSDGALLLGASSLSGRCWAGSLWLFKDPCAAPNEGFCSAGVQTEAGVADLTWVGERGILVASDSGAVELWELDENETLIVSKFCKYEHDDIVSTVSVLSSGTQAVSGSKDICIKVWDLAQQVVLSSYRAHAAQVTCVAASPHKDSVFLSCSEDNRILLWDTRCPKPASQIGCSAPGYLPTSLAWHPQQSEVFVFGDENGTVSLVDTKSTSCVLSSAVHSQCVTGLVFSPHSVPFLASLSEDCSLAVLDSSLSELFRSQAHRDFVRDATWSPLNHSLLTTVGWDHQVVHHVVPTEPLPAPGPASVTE

Structure (SMILES) | IC50
O=C1CN(Cc2ccccn2)CCN1CC(O)CN1CCc2ccccc2C1 (stereo not drawn) | 1000 to 10000 nM
COc1ccc(Cn2ccc(-c3ccc(OC[C@H](O)CN4CCc5ccccc5C4)cc3)n2)cc1 | 1000 to 10000 nM
O=C(NCC(O)CN1CCc2ccccc2C1)c1cc(NC2CCOCC2)ccn1 (stereo not drawn) | < 100 nM
CC(=O)N1CCN(CC(O)CN2CCc3ccccc3C2)C(=O)C1 (stereo not drawn) | 1000 to 10000 nM
Nc1ncccc1OCC(=O)NCC(O)CN1CCc2ccccc2C1 (stereo not drawn) | 1000 to 10000 nM
CC(C)(C)OC(=O)Nc1ccccc1OCC(=O)NCC(O)CN1CCc2ccccc2C1 (stereo not drawn) | 1000 to 10000 nM
O=C1CC(c2ccccc2)CCN1C[C@H](O)CN1CCc2ccccc2C1 (stereo partly drawn) | 1000 to 10000 nM
OC(COc1ccc(Cc2ccccc2)cc1)CN1CCc2ccccc2C1 (stereo not drawn) | 101 to 1000 nM
CS(=O)(=O)Nc1cccnc1OCC(=O)NCC(O)CN1CCc2ccccc2C1 (stereo not drawn) | 1000 to 10000 nM
O=C(COc1ccc(F)cc1)NCC(O)CN1CCc2ccccc2C1 (stereo not drawn) | 1000 to 10000 nM
OC(COc1ccc(OCc2ccccc2)cc1)CN1CCc2ccccc2C1 (stereo not drawn) | 1000 to 10000 nM
O=C1CN(Cc2ccccc2)CCN1CC(O)CN1CCc2ccccc2C1 (stereo not drawn) | 1000 to 10000 nM
O=C(NCC(O)CN1CCc2ccccc2C1)c1cccc(C(=O)N2CCOCC2)c1 (stereo not drawn) | 1000 to 10000 nM
CS(=O)(=O)c1ccc(OCC(=O)NCC(O)CN2CCc3ccccc3C2)cc1 (stereo not drawn) | 1000 to 10000 nM
CN(C)c1cncc(OCC(=O)NCC(O)CN2CCc3ccccc3C2)c1 (stereo not drawn) | 1000 to 10000 nM
O=C(COc1cccc(NC2CCOCC2)n1)NCC(O)CN1CCc2ccccc2C1 (stereo not drawn) | 1000 to 10000 nM
OC(COc1cccc(CNC2CCCCC2)c1)CN1CCc2ccccc2C1 (stereo not drawn) | 101 to 1000 nM
CC(=O)Nc1cncc(OCC(=O)NCC(O)CN2CCc3ccccc3C2)c1 (stereo not drawn) | > 10000 nM
O=C(COC1CCOCC1)NCC(O)CN1CCc2ccccc2C1 (stereo not drawn) | 1000 to 10000 nM
COc1ccc(Cn2ccc(-c3ccc(OC[C@@H](O)CN4CCc5ccccc5C4)cc3)n2)cc1 | 10000 to 40000 nM
OC(COc1cccc(CNC2CCOCC2)c1)CN1CCc2ccccc2C1 (stereo not drawn) | 101 to 1000 nM
OC(COCc1cc(-c2ccc(Cl)cc2)no1)CN1CCc2ccccc2C1 (stereo not drawn) | 101 to 1000 nM
O=C(COc1ccccc1OCCN1CCOCC1)NC[C@@H](O)CN1CCc2ccccc2C1 | 1000 to 10000 nM
O=C(NCC(O)CN1CCc2ccccc2C1)c1ccc(OC2CCOCC2)cc1 (stereo not drawn) | < 100 nM
O=C(COc1ccccc1-c1c[nH]cn1)NCC(O)CN1CCc2ccccc2C1 (stereo not drawn) | 10000 to 50000 nM

Structure (SMILES) | IC50
O=C(COc1ccccc1)NC[C@@H](O)CN1CCc2ccccc2C1 | 1000 to 10000 nM
O=C1CC(c2ccccc2)CCN1C[C@@H](O)CN1CCc2ccccc2C1 (stereo partly drawn) | 1000 to 10000 nM
O=c1cc(Nc2ccccc2)ccn1C[C@H](O)CN1CCc2ccccc2C1 | 1000 to 10000 nM
O=C1COCCN1CC(O)CN1CCc2ccccc2C1 (stereo not drawn) | 1000 to 10000 nM
O=C(NC[C@@H](O)CN1CCc2ccccc2C1)c1ccccc1 | 1000 to 10000 nM
OC(COc1ccccc1C1CCCCC1)CN1CCc2ccccc2C1 (stereo not drawn) | 1000 to 10000 nM
OC(COc1cccc(CN2CCCCC2)c1)CN1CCc2ccccc2C1 (stereo not drawn) | 1000 to 10000 nM
OC(COCc1ccc(CN2CCOCC2)cc1)CN1CCc2ccccc2C1 (stereo not drawn) | 1000 to 10000 nM
CN1CCC(c2ccccc2OCC(=O)NCC(O)CN2CCc3ccccc3C2)C1 (stereo not drawn) | 1000 to 10000 nM
O=C(COc1cccc2[nH]c(=O)cnc12)NCC(O)CN1CCc2ccccc2C1 (stereo not drawn) | 1000 to 10000 nM
CS(=O)(=O)Nc1ccccc1C(=O)NCC(O)CN1CCc2ccccc2C1 (stereo not drawn) | 1000 to 10000 nM
OC(CCc1cccc(CNC2CCCC2)c1)CN1CCc2ccccc2C1 (stereo not drawn) | 10000 to 40000 nM
OC(COC1CCCN(c2ccccc2)C1)CN1CCc2ccccc2C1 (stereo not drawn) | 1000 to 10000 nM
COc1cc(NC2CCOCC2)cc(C(=O)NCC(O)CN2CCc3ccccc3C2)c1 (stereo not drawn) | 101 to 1000 nM
O=C1CN(Cc2cccnc2)CCN1CC(O)CN1CCc2ccccc2C1 (stereo not drawn) | 1000 to 10000 nM
O=C(Cc1ccccc1)NC[C@@H](O)CN1CCc2ccccc2C1 | 10000 to 50000 nM
OC(COc1ccc(OCC(O)CN2CCc3ccccc3C2)cc1)CN1CCc2ccccc2C1 (stereo not drawn) | 101 to 1000 nM
O=C(NCC(O)CN1CCc2ccccc2C1)c1cc(NC2CCOCC2)ccc1F (stereo not drawn) | 101 to 1000 nM
CC1Cc2ccccc2CN1CC(O)COc1cccc(CNC2CCCC2)c1 (stereo not drawn) | > 40000 nM
O=C(CC1CCCCC1)NC[C@H](O)CN1CCc2ccccc2C1 | 1000 to 10000 nM
COc1ccc(Cn2nccc2-c2ccc(OC[C@H](O)CN3CCc4ccccc4C3)cc2)cc1 | 1000 to 10000 nM
NS(=O)(=O)c1cccc(OCC(=O)NCC(O)CN2CCc3ccccc3C2)c1 (stereo not drawn) | 1000 to 10000 nM
O=C(COc1ccccc1C1CNC1)NCC(O)CN1CCc2ccccc2C1 (stereo not drawn) | 1000 to 10000 nM
O=C1CN(C2CCOCC2)CCN1CC(O)CN1CCc2ccccc2C1 (stereo not drawn) | 1000 to 10000 nM
C[C@H](Oc1cccc2cccnc12)C(=O)NC[C@@H](O)CN1CCc2ccccc2C1 | 1000 to 10000 nM

Structure (SMILES) | IC50
CN(CC(O)CN1CCc2ccccc2C1)C(=O)CCc1ccccc1 (stereo not drawn) | 1000 to 10000 nM
O=C(COC1CCCCC1)NCC(O)CN1CCc2ccccc2C1 (stereo not drawn) | 101 to 1000 nM
CS(=O)(=O)N1CCN(CC(O)CN2CCc3ccccc3C2)C(=O)C1 (stereo not drawn) | 1000 to 10000 nM
OC(COc1cccc(CNc2cc[nH]n2)c1)CN1CCc2ccccc2C1 (stereo not drawn) | 101 to 1000 nM
CC(C)(Oc1ccccc1)C(=O)NCC(O)CN1CCc2ccccc2C1 (stereo not drawn) | 101 to 1000 nM
CC(Nc1cccc(C(=O)NCC(O)CN2CCc3ccccc3C2)c1)C1CCOCC1 (stereo not drawn) | 101 to 1000 nM
OC(COc1ccccc1N1CCNCC1)CN1CCc2ccccc2C1 (stereo not drawn) | 10000 to 40000 nM
CC1(C)CC(Nc2cccc(C(=O)NCC(O)CN3CCc4ccccc4C3)c2)CCO1 (stereo not drawn) | 101 to 1000 nM
OC(COc1cccc(CNC2CCNCC2)c1)CN1CCc2ccccc2C1 (stereo not drawn) | 1000 to 10000 nM
CC(=O)Nc1ncccc1OCC(=O)NCC(O)CN1CCc2ccccc2C1 (stereo not drawn) | > 10000 nM
CN(C)c1cccnc1OCC(=O)NCC(O)CN1CCc2ccccc2C1 (stereo not drawn) | > 10000 nM
Cc1cccc(N2CCN(CC(O)CN3CCc4ccccc4C3)C(=O)C2)c1 (stereo not drawn) | 10000 to 50000 nM
O=c1cccc(CC(O)CN2CCc3ccccc3C2)[nH]1 (stereo not drawn) | 10000 to 50000 nM
O=C(COc1cccc2cccnc12)NCC(O)CN1Cc2ccccc2C(F)(F)C1 (stereo not drawn) | > 10000 nM
CN1CCN(CC(O)CN2CCc3ccccc3C2)C(=O)C1 (stereo not drawn) | > 50000 nM
O=C(Cc1ccccc1)NC[C@H](O)CN1CCc2ccccc2C1 | 101 to 1000 nM
OC(COc1ccccc1-c1ccno1)CN1CCc2ccccc2C1 (stereo not drawn) | 1000 to 10000 nM
OC(COc1ccc(-c2ccn[nH]2)cc1)CN1CCc2ccccc2C1 (stereo not drawn) | 1000 to 10000 nM
O=C(CCc1ccccc1)NCC(O)CN1CCc2ccccc2C1 (stereo not drawn) | 1000 to 10000 nM
CN(c1cccc(C(=O)NCC(O)CN2CCc3ccccc3C2)c1)C1CCOCC1 (stereo not drawn) | 101 to 1000 nM
Cc1cc(OCC(O)CN2CCc3ccccc3C2)c(C)cc1CN1CCOCC1 (stereo not drawn) | 101 to 1000 nM
O=C(COc1cccc2c1CCCN2)NCC(O)CN1CCc2ccccc2C1 (stereo not drawn) | 101 to 1000 nM
NS(=O)(=O)c1ccccc1C(=O)NCC(O)CN1CCc2ccccc2C1 (stereo not drawn) | 1000 to 10000 nM
CC(=O)Nc1cccnc1OCC(=O)NCC(O)CN1CCc2ccccc2C1 (stereo not drawn) | > 50000 nM
OC(COc1cccc(-c2cccnc2)c1)CN1CCc2ccccc2C1 (stereo not drawn) | 1000 to 10000 nM

Structure (SMILES) | IC50
OC(COc1cccc(C2CCCCC2)c1)CN1CCc2ccccc2C1 (stereo not drawn) | 1000 to 10000 nM
CC(Oc1ccccc1S(N)(=O)=O)C(=O)NCC(O)CN1CCc2ccccc2C1 (stereo not drawn) | > 50000 nM
NS(=O)(=O)c1ccc(OCC(=O)NCC(O)CN2CCc3ccccc3C2)cc1 (stereo not drawn) | 1000 to 10000 nM
CN(CC(O)CN1CCc2ccccc2C1)C(=O)COc1ccccc1 (stereo not drawn) | 10000 to 50000 nM
OC(COc1cccc2ccc(N3CCOCC3)nc12)CN1CCc2ccccc2C1 (stereo not drawn) | 1000 to 10000 nM
O=C(CC1CCCCC1)NC[C@@H](O)CN1CCc2ccccc2C1 | 10000 to 50000 nM
O=C(Cc1ccncc1)NCC(O)CN1CCc2ccccc2C1 (stereo not drawn) | 10000 to 50000 nM
OC(COC1CCN(Cc2ccccc2)C1)CN1CCc2ccccc2C1 (stereo not drawn) | 1000 to 10000 nM
CS(=O)(=O)Nc1ncccc1OCC(=O)NCC(O)CN1CCc2ccccc2C1 (stereo not drawn) | > 10000 nM
O=C(NCC(O)CN1CCc2ccccc2C1)c1cccc(NC2COC2)c1 (stereo not drawn) | 101 to 1000 nM
O=C(NC[C@H](O)CN1CCc2ccccc2C1)Oc1ccccc1 | 1000 to 10000 nM
CN(C)c1ccc(N2CCN(C[C@H](O)CN3CCc4ccccc4C3)C(=O)C2)cc1 | 1000 to 10000 nM
COc1cccc2c1CCN(CC(O)COc1cccc(CNC3CCCC3)c1)C2 (stereo not drawn) | > 40000 nM
COc1ccc(Cn2nccc2-c2ccc(OC[C@@H](O)CN3CCc4ccccc4C3)cc2)cc1 | > 40000 nM
O=C(NCC(O)CN1CCc2ccccc2C1)c1cccc(CN2CCOCC2)c1 (stereo not drawn) | 101 to 1000 nM
O=C(NC[C@@H](O)CN1CCc2ccccc2C1)Nc1ccccc1 | 1000 to 10000 nM
OC(COc1cccc(OCc2ccccc2)c1)CN1CCc2ccccc2C1 (stereo not drawn) | 1000 to 10000 nM
O=C(NC1CCOCC1)C1CC(=O)N(CC(O)CN2CCc3ccccc3C2)C1 (stereo not drawn) | > 10000 nM
Cn1cc(-c2cccc(OCC(O)CN3CCc4ccccc4C3)c2)cn1 (stereo not drawn) | 1000 to 10000 nM
O=C(NCC(O)CN1CCc2ccccc2C1)c1cncc(NC2CCOCC2)c1 (stereo not drawn) | < 100 nM
NC(=O)c1ccc(OCC(=O)NCC(O)CN2CCc3ccccc3C2)cc1 (stereo not drawn) | 1000 to 10000 nM
CN1CC(c2ccccc2OCC(=O)NCC(O)CN2CCc3ccccc3C2)C1 (stereo not drawn) | 1000 to 10000 nM
O=C(COc1cccc2c1CCCN2Cc1ccccc1)NCC(O)CN1CCc2ccccc2C1 (stereo not drawn) | < 100 nM
